Test results taken from EP1007530B1, “6-O-SUBSTITUTED ERYTHROMYCIN COMPOUNDS AND METHOD FOR MAKING SAME” (ABBOTT LABORATORIES, priority 1996, dated 1997).

Tests used:
Assay in all cases: In vitro assay of antibacterial activity (agar dilution MIC)
Type in all cases: cell-based
Candida albicans CCH 442 = settings: BHI agar, 35-37 °C, 20 to 24 hours, unit assumed
Description: (§1) Representative compounds of the present invention were assayed in vitro for antibacterial activity as follows: Twelve petri dishes containing successive aqueous dilutions of the test compound mixed with 10 mL of sterilized Brain Heart Infusion (BHI) agar (Difco 0418-01-5) were prepared. Each plate was inoculated with 1:100 (or 1:10 for slow-growing strains, such as Micrococcus and Streptococcus) dilutions of up to 32 different microorganisms, using a Steers replicator block. The inoculated plates were incubated at 35-37 °C for 20 to 24 hours, In addition, a control plate, using BHI agar containing no test compound, was prepared and incubated at the beginning and end of each test.
(§2) An additional plate containing a compound having known susceptibility patterns for the organisms being tested and belonging to the same antibiotic class as the test compound was also prepared and incubated as a further control, as well as to provide test-to-test comparability. Erythromycin A was used for this purpose.
(§3) After incubation, each plate was visually inspected. The minimum inhibitory concentration (MIC) was defined as the lowest concentration of drug yielding no growth, a slight haze, or sparsely isolated colonies on the inoculum spot as compared to the growth control. […]

[1] = system: Enterobacter aerogenes ATCC 13048; settings: BHI agar, 35-37 °C, 20 to 24 hours, unit assumed
Description: as §1, §2, §3

[2] = system: Enterococcus faecium ATCC 8043; settings: BHI agar, 35-37 °C, 20 to 24 hours, unit assumed
Description: as §1, §2, §3

Escherichia coli DC-2 = settings: BHI agar, 35-37 °C, 20 to 24 hours, unit assumed
Description: as §1, §2, §3

Escherichia coli H560 = settings: BHI agar, 35-37 °C, 20 to 24 hours, unit assumed
Description: as §1, §2, §3

Escherichia coli JUHL = settings: BHI agar, 35-37 °C, 20 to 24 hours, in µg/mL (unit assumed)
Description: as §1, §2, §3

Escherichia coli KNK 437 = settings: BHI agar, 35-37 °C, 20 to 24 hours, unit assumed
Description: as §1, §2, §3

Escherichia coli SS = settings: BHI agar, 35-37 °C, 20 to 24 hours, unit assumed
Description: as §1, §2, §3

[3] = system: Klebsiella pneumoniae ATCC 8045; settings: BHI agar, 35-37 °C, 20 to 24 hours, unit assumed
Description: as §1, §2, §3

[4] = system: Micrococcus luteus ATCC 4698; settings: BHI agar, 35-37 °C, 20 to 24 hours, unit assumed
Description: as §1, §2, §3

[5] = system: Micrococcus luteus ATCC 9341; settings: BHI agar, 35-37 °C, 20 to 24 hours, unit assumed
Description: as §1, §2, §3

[6] = system: Providencia struartii CMX 640; settings: BHI agar, 35-37 °C, 20 to 24 hours, unit assumed
Description: as §1, §2, §3

[7] = system: Pseudomonas aeruginosa 5007; settings: BHI agar, 35-37 °C, 20 to 24 hours, unit assumed
Description: as §1, §2, §3

[8] = system: Pseudomonas aeruginosa BMH10; settings: BHI agar, 35-37 °C, 20 to 24 hours, in µg/mL (unit assumed)
Description: as §1, §2, §3

[9] = system: Pseudomonas aeruginosa DPHD-2862; settings: BHI agar, 35-37 °C, 20 to 24 hours, unit assumed
Description: as §1, §2, §3

[10] = system: Pseudomonas aeruginosa DPHD-5263; settings: BHI agar, 35-37 °C, 20 to 24 hours, in µg/mL (unit assumed)
Description: as §1, §2, §3

[11] = system: Pseudomonas aeruginosa K799/61; settings: BHI agar, 35-37 °C, 20 to 24 hours, unit assumed
Description: as §1, §2, §3

[12] = system: Pseudomonas aeruginosa K799/WT; settings: BHI agar, 35-37 °C, 20 to 24 hours, unit assumed
Description: as §1, §2, §3

Pseudomonas capacia 2961 = settings: BHI agar, 35-37 °C, 20 to 24 hours, in µg/mL (unit assumed)
Description: as §1, §2, §3

[13] = system: Staphylococcus aureus 1775; settings: BHI agar, 35-37 °C, 20 to 24 hours, unit assumed
Description: as §1, §2, §3

[14] = system: Staphylococcus aureus A-5278; settings: BHI agar, 35-37 °C, 20 to 24 hours, unit assumed
Description: as §1, §2, §3

[15] = system: Staphylococcus aureus ATCC 6538P; settings: BHI agar, 35-37 °C, 20 to 24 hours, unit assumed
Description: as §1, §2, §3

[16] = system: Staphylococcus aureus CMX 553; settings: BHI agar, 35-37 °C, 20 to 24 hours, unit assumed
Description: as §1, §2, §3

[17] = system: Staphylococcus aureus CMX 642A; settings: BHI agar, 35-37 °C, 20 to 24 hours, unit assumed
Description: as §1, §2, §3

[18] = system: Staphylococcus aureus NCTC10649M; settings: BHI agar, 35-37 °C, 20 to 24 hours, unit assumed
Description: as §1, §2, §3

[19] = system: Staphylococcus epidermidis 3519; settings: BHI agar, 35-37 °C, 20 to 24 hours, unit assumed
Description: as §1, §2, §3

[20] = system: Streptococcus agalactiae CMX 508; settings: BHI agar, 35-37 °C, 20 to 24 hours, unit assumed
Description: as §1, §2, §3

[21] = system: Streptococcus bovis A-5169; settings: BHI agar, 35-37 °C, 20 to 24 hours, unit assumed
Description: as §1, §2, §3

[22] = system: Streptococcus pyogenes 930; settings: BHI agar, 35-37 °C, 20 to 24 hours, unit assumed
Description: as §1, §2, §3

[23] = system: Streptococcus pyogenes EES61; settings: BHI agar, 35-37 °C, 20 to 24 hours, unit assumed
Description: as §1, §2, §3

[24] = system: Streptococcus pyogenes PIU 2548; settings: BHI agar, 35-37 °C, 20 to 24 hours, unit assumed
Description: as §1, §2, §3

[25] = system: Actinetobacter calcoaceticus CMX 669; settings: BHI agar, 35-37 °C, 20 to 24 hours, unit assumed
Description: as §1
(§4) An additional plate containing a compound having known susceptibility patterns for the organisms being tested and belonging to the same antibiotic class as the test compound was also prepared and incubated as a further control, as well as to provide test-to-test comparability.
as §3

[26] = system: Staphylococcus aureus A5177; settings: BHI agar, 35-37 °C, 20 to 24 hours, unit assumed
Description: as §1, §4, §3

[27] = system: Mycobacterium smegmatis ATCC 114; settings: BHI agar, 35-37 °C, 20 to 24 hours, unit assumed
Description: as §1, §2, §3

| SMILES | MIC (Candida albicans CCH 442) [µg/mL] | MIC [1] [µg/mL] | MIC [2] [µg/mL] | MIC (Escherichia coli DC-2) [µg/mL] | MIC (Escherichia coli H560) [µg/mL] | MIC (Escherichia coli JUHL) | MIC (Escherichia coli KNK 437) [µg/mL] | MIC (Escherichia coli SS) [µg/mL] | MIC [4] [µg/mL] | MIC [5] [µg/mL] | MIC [6] [µg/mL] | MIC [7] [µg/mL] | MIC [8] | MIC [9] [µg/mL] | MIC [10] | MIC [11] [µg/mL] | MIC [12] [µg/mL] | MIC (Pseudomonas capacia 2961) | MIC [13] [µg/mL] | MIC [14] [µg/mL] | also measured |
| --- | --- | --- | --- | --- | --- | --- | --- | --- | --- | --- | --- | --- | --- | --- | --- | --- | --- | --- | --- | --- | --- |
| CCCO[C@]1(C)C[C@@H](C)C(=O)[C@H](C)[C@@H](O)[C@](C)(O)[C@@H](CC)OC(=O)[C@H](C)[C@@H](O[C@H]2C[C@@](C)(OC)[C@@H](O)[C@H](C)O2)[C@H](C)[C@H]1O[C@@H]1O[C@H](C)C[C@H](N(C)C)[C@H]1O [Example 2, Compound of Formula (X): X is =O, R is propyl] | 0.1 | > 100 | 3.1 | > 100 | > 100 | >100 | > 100 | 1.56 | 3.1 | 0.2 | > 100 | > 100 | >100 | > 100 | >100 | > 100 | 6.2 | 50 | > 100 | > 100 | MIC [3]: > 100 µg/mL; MIC [15]: 3.1 µg/mL; MIC [16]: 3.1 µg/mL; MIC [17]: 12.5 µg/mL; MIC [18]: 6.2 µg/mL; MIC [19]: 1.56 µg/mL; MIC [20]: 0.2 µg/mL; MIC [21]: 0.05 µg/mL; MIC [22]: > 100 µg/mL; MIC [23]: 0.05 µg/mL; MIC [24]: 6.2 µg/mL; MIC [25]: > 100 µg/mL; MIC [26]: 25 µg/mL |
| CC[C@H]1OC(=O)[C@H](C)[C@@H](O[C@H]2C[C@@](C)(OC)[C@@H](O)[C@H](C)O2)[C@H](C)[C@@H](O[C@@H]2O[C@H](C)C[C@H](N(C)C)[C@H]2O)[C@](C)(OCC(O)Cn2ccnc2)C[C@@H](C)C(=O)[C@H](C)[C@@H](O)[C@]1(C)O (some centres unmarked) [Example 5, Compound of Formula (X): X is =O, R is 2-hydroxy-3-(imidazol-1-yl)propyl] | > 100 | 100 | 0.39 | 50 | 50 | 25 | 50 | 0.78 | 3.1 | 0.1 | > 100 | > 100 | 100 | > 100 | > 100 | 1.56 | > 100 | > 100 | > 100 | > 100 | MIC [3]: 100 µg/mL; MIC [27]: 1.56 µg/mL; MIC [15]: 0.78 µg/mL; MIC [16]: 0.78 µg/mL; MIC [17]: 0.78 µg/mL; MIC [18]: 0.78 µg/mL; MIC [19]: 1.56 µg/mL; MIC [20]: 0.1 µg/mL; MIC [21]: 0.05 µg/mL; MIC [22]: > 100 µg/mL; MIC [23]: 0.05 µg/mL; MIC [25]: 12.5 µg/mL; MIC [26]: 12.5 µg/mL |
| CC[C@H]1OC(=O)[C@H](C)[C@@H](O[C@H]2C[C@@](C)(OC)[C@@H](O)[C@H](C)O2)[C@H](C)[C@@H](O[C@@H]2O[C@H](C)C[C@H](N(C)C)[C@H]2O)[C@](C)(OCC(O)CNCc2ccccc2)C[C@@H](C)C(=O)[C@H](C)[C@@H](O)[C@]1(C)O (some centres unmarked) [Example 7, Compound of Formula (X): X is =O, R is 2-hydroxy-3-(benzylamino)propyl] | > 100 | 50 | 0.39 | 6.2 | 1.56 | 12.5 | 12.5 | 0.2 | 0.78 | 0.02 | > 100 | > 100 | 25 | > 100 | > 100 | 0.39 | 100 | > 100 | > 100 | > 100 | MIC [3]: 25 µg/mL; MIC [27]: 0.2 µg/mL; MIC [15]: 0.39 µg/mL; MIC [16]: 0.39 µg/mL; MIC [17]: 0.39 µg/mL; MIC [18]: 0.39 µg/mL; MIC [19]: 0.39 µg/mL; MIC [20]: 0.01 µg/mL; MIC [21]: 0.01 µg/mL; MIC [22]: > 100 µg/mL; MIC [23]: 0.01 µg/mL; MIC [25]: 12.5 µg/mL; MIC [26]: 3.1 µg/mL |
| CC[C@H]1OC(=O)[C@H](C)[C@@H](O[C@H]2C[C@@](C)(OC)[C@@H](O)[C@H](C)O2)[C@H](C)[C@@H](O[C@@H]2O[C@H](C)C[C@H](N(C)C)[C@H]2O)[C@](C)(OCC=NO)C[C@@H](C)C(=O)[C@H](C)[C@@H](O)[C@]1(C)O [Example 12, Compound of Formula (X): X is =O, R is -CH2-CH=N-OH] | > 100 | > 100 | 0.1 | > 100 | 25 | 50 | 100 | 0.78 | 0.78 | 0.05 | > 100 | > 100 | > 100 | > 100 | > 100 | 1.56 | > 100 | > 100 | > 100 | > 100 | MIC [27]: 0.78 µg/mL; MIC [15]: 0.39 µg/mL; MIC [16]: 0.39 µg/mL; MIC [17]: 0.39 µg/mL; MIC [18]: 0.39 µg/mL; MIC [19]: 0.39 µg/mL; MIC [20]: 0.05 µg/mL; MIC [21]: 0.05 µg/mL; MIC [22]: > 100 µg/mL; MIC [23]: 0.05 µg/mL; MIC [24]: 12.5 µg/mL; MIC [25]: 12.5 µg/mL |
